# Data taken from patent US20240066065A1, “PLATELET DERIVATIVES FOR TREATING COAGULOPATHY” (Cellphire, Inc., priority 2019, published 2024).
# Tests used:
# [1] = test system: whole blood; assay: T-TAS thrombus formation under flow, AR chip (collagen+TF), rivaroxaban-anticoagulated whole blood; format: cell-based, human
# Text: (§1) In the Total Thrombus-formation Analysis System (T-TAS®, FUJIMORI KOGYO CO., LTD), the sample is forced through collagen-coated microchannels using mineral oil. Changes in pressure are used to assess thrombus formation. The Occlusion Start Time is time it takes to reach 10 kPa, and the Occlusion Time=time it takes to each Δ80 kPa using an AR chip (e.g., Zacros Item No, TC0101). According to the manufacturer, an AR chip can be used for analyzing the formation of a mixed white thrombus consisting chiefly of fibrin and activated platelets. It has a flow path (300 μm wide by 50 μm high) coated with collagen and tissue factors and can be used to analyze the clotting function and platelet function. In comparison, a PL chip can be used for analyzing the formation of a platelet thrombus consisting chiefly of activated platelets. A PL chip has a flow path coated with collagen only and can be used to analyze the platelet function.
# Rivaroxaban (sometimes herein called Riv) dose-response in whole blood was measured using T-TAS®. An AR chip (Collagen+TF) was used. T-TAS® assays were performed according to Example 3. The donor platelets were used at 307k/μL.
# Thrombosomes were prepared consistent with the procedures described in U.S. Pat. No. 8,486,617 (such as, e.g., Examples 1-5) and U.S. Pat. No. 8,097,403 (such as, e.g., Examples 1-3), and rehydrated by addition of sterile water. T-TAS® assays were run according to Example 3 using 3 μM rivaroxaban and different concentrations of thrombosomes (FIG. 10A, Table 8). The ‘No Riv’ vertical line indicates the approximate occlusion time of a sample with no added rivaroxaban.
# [2] = test system: Platelet rich plasma; assay: T-TAS flow system (collagen and tissue factor coated channel), rivaroxaban-treated platelet rich plasma; format: cell-based, human; conditions: 3 μM rivaroxaban (6.04 without)
# Text: as §1
# In a similar experiment, T-TAS® assays were run according to Example 3 with no rivaroxaban, 3 μM rivoroxaban, and 3 μM rivoroxaban and 300×10^3/μL thrombosomes. Platelet rich plasma that was treated with 3 μM rivaroxaban extended occlusion times from 6.04 to 26.01 minutes on the T-TAS® flow system (collagen and tissue factor coated channel).
# [3] = test system: heparinized plasma; assay: Thrombin generation assay in heparinized George King Plasma; format: biochemical, human; conditions: 2 U/mL heparin, 20 μg/mL protamine sulfate, thrombosomes 5K, 50K, 150K per μL
# Experimental: Thrombosomes were prepared consistent with the procedures described in U.S. Pat. No. 8,486,617 (such as, e.g., Examples 1-5) and U.S. Pat. No.8,097,403 (such as, e.g., Examples 1-3), and rehydrated by addition of sterile water. aPTT and thrombin generation assays were performed as described in Example 3. […] The dashed line at approximately 70 seconds denotes the limit of abnormal aPTT and the second dashed line is the maximum time measured by the instrument (120 sec). Thrombin generation in heparin treated samples was also measured. […] The dashed line in FIGS. 23B and 23C denotes a typical thrombin peak value seen in this assay for control plasma.
# The dashed line at approximately 70 seconds denotes the limit of abnormal aPTT and the second dashed line is the maximum time measured by the instrument (120 sec). Thrombin generation in heparin treated samples was also measured, with and without protamine sulfate. […] The dashed line in FIGS. 24B and 24C enotes a typical thrombin peak value seen in this assay for control plasma.
# [4] = test system: dabigatran treated PRP; conditions: dabigatran 100 ng/mL (18.89 untreated)
# Experimental: • (1) Open CAT software; set up instrument; and prepare PRP reagent (including Tissue Factor and some phospholipids), calibrator, and fluoro-buffer according to manufacturer guidelines. • (2) Thaw warfarin or control plasma in 37° C. water bath for 5 minutes. • (3) Rehydrate thrombosomes with cell culture grade water for 10 minutes then dilute with Control Buffer to double target concentration. • (4) For each sample, combine 1:1 volumes of Control Buffer with or without thrombosomes and plasma. • (5) Using a multichannel pipette, add 20 μL of PRP reagent to each well. • (6) Add 80 μL of sample per well.
compound,measurement,setting,value
O=C(NC[C@H]1CN(c2ccc(N3CCOCC3=O)cc2)C(=O)O1)c1ccc(Cl)s1 [rivaroxaban],AUC,[1]; 1 uM rivaroxaban,1686 kPa*min
same,Occ Spd,[1]; 1 uM rivaroxaban,20.9 kPa/min
same,AUC,[1]; 3 uM rivaroxaban,423 kPa*min
same,Occ Spd,[1]; 3 uM rivaroxaban,28.2 kPa/min
same,AUC,[1]; 9 uM rivaroxaban,13.6 kPa*min
same,occlusion and thrombus formation,[1]; 9 μM rivaroxaban (a pharmacological dose),inhibits occlusion but not all thrombus formation
same,occlusion time,[2],26.01 min
Protamine Sulfate,thrombosome-mediated thrombin generation after heparin reversal,[3],Restores Thrombosome-Mediated Thrombin Generation
dabigatran,Time to peak,[4],34.67 min
